According to US20210230179A1, “THIENO[2,3-B]PYRIDINE DERIVATIVES AS EPAC INHIBITORS AND THEIR PHARMACEUTICAL USES” (INSTITUT NATIONAL DE LA SANTE ET DE LA RECHERCHE MEDICALE …, priority 2018, published 2021):
Read-outs that look alike come from different tables or passages of the source.

Assays:
Epac1 = biological target: T1, Epac1 (Homo sapiens, UniProt O95398); assay: biochemical; settings: for IC50: read-out: IC50, Epac1 GEF activity
T1 sequence (O95398 191-923 limits assumed): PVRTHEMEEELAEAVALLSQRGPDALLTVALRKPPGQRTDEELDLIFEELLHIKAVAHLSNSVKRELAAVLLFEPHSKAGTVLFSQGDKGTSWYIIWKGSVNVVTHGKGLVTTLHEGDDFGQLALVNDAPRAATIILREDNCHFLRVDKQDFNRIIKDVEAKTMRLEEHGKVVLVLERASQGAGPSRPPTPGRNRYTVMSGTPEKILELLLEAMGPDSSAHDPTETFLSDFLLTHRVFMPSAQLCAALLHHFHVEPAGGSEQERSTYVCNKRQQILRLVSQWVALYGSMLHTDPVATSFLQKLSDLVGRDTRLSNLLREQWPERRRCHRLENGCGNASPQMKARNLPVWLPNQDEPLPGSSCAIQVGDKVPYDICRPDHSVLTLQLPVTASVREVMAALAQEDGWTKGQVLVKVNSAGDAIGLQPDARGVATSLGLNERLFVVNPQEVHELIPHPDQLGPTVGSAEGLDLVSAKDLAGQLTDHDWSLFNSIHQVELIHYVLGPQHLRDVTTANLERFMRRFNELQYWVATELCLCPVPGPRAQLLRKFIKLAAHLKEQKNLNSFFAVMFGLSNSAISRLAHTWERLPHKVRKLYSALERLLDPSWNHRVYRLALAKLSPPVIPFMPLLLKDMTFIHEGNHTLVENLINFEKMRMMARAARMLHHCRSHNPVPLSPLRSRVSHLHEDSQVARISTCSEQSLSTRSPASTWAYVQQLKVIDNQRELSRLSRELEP
Source text: (§1) FIGS. 4-8. […] Variations of relative fluorescence units (RFU) were studied as a function of time and fitted to single exponentials.

Epac2 = biological target: T2, Epac2 (Homo sapiens, UniProt Q8WZA2); assay: Epac GEF activity assay (b-GDP dissociation from recombinant Rap1), Epac2; type: biochemical
T2 sequence (Q8WZA2 1-867 isoform Q8WZA2-3): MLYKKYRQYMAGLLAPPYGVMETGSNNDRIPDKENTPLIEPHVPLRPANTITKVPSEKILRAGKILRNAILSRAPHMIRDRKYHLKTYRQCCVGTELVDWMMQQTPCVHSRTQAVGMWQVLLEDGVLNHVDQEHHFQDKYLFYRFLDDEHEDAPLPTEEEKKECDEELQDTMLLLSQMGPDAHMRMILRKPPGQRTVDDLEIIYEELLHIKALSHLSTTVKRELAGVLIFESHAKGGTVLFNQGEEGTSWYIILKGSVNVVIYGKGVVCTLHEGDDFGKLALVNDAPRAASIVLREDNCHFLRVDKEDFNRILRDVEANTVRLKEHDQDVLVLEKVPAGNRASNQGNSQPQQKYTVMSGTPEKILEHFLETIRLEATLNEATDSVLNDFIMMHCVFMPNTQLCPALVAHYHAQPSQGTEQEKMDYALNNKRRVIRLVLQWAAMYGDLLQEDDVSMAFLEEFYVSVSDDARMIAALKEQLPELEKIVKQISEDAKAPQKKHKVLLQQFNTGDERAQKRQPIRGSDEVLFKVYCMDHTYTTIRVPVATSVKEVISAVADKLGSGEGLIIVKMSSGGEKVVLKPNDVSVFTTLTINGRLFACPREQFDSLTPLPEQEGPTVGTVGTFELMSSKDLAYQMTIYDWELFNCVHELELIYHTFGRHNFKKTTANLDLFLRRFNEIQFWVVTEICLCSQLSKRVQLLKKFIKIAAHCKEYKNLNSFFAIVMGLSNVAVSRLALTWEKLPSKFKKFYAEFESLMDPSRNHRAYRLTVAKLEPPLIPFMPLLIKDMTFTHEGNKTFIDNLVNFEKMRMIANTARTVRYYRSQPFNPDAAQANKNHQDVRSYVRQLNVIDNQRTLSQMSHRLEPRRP
Source text: as §1

type I PKA holoenzyme = type I PKA holoenzyme activation; type: biochemical; settings: 30 μM, presence and absence of 10 μM cAMP
wild-type C57BL/6 mice = assay: chronic ISO infusion (chronic β-AR activation): cardiac function, remodelling, tolerability
Source text: FIG. 17: AST and ALT activities in the serum of mice treated under the indicated conditions (left panel) (n=7 per group). Comparison of FS in animals between day 1 and day 14 in the presence or absence of AM-001 (right panel) (n=12 per group).
FIG. 18: LVW/TL ratios of mice after 14 days of treatment with vehicle or AM-001.
FIG. 20: Comparison of FS, LVIDs and LVIDd in ISO treated animals between day 1 and day 14 in the presence or absence of AM-001 (n=18-20 per group).
FIG. 21: Representative immunoblots of Epac1, GRK2, and GRK5. Statistical significance was determined by two-way ANOVA followed by Bonferroni post-test. * p<0.05, ** p<0.01, *** p<0.001, **** p<0.0001 vs indicated values. ns, not significant.
Osmotic mini-pumps (Alzet) were implanted subcutaneously in mice anaesthetized with isoflurane (1%). Pumps were filled with ISO or sterile saline and were set to deliver ISO at 60 mg/kg per day for 14 days to induce cardiac hypertrophy. AM-001 treatment (10 mg/kg/d diluted in 10% DMSO/20% Kolliphor/70% sterile saline) is given from the third day of ISO infusion. Mice were subsequently euthanized with barbiturate overdose (pentobarbital, 150 mg/kg, i.p.) and mini-pumps were weighed in order to verify complete diffusion.
Echocardiography was carried out on lightly anaesthetized (1% isoflurane in air) mice placed on a heating pad. The left ventricle dimensions were obtained during TimeMouvement mode acquisition from the parasternal short-axis view at the midventricular level of the papillary muscles using a Vevo2100 ivid7 echograph and a […] transducer (M550i13L, VisualsonicsGE Healthcare). Images were transferred and analysed off line with Vevolab software EchoPAC (GE Healthcare).
Determination of fibrosis Hearts were transversely sectioned at 10 μm thickness, fixed with 4% paraformaladehyde and stained with Sirius Red. Slides were scanned with NanoZoomer (Hamamatsu v1.2) and fibrosis was measured as positively stained area with Sirius Red and expressed as percent of total area, using ImageJ software (RSB).
Hearts were collected, fixed in 4% paraformaldehyde, dehydrated, and embedded in OCT tissue embedding compound (Tissue Tek, EMS). Longitudinal sections were performed at 10 μm in thickness and stained with hematoxylin and eosin for histological examination.
Aspartate aminotransferase (AST) and alanine aminotransferase (ALT) were measured in serum to determine the cytotoxicity, using specific kits purchased from ScienCell Research Laboratories following the manufacturer's instructions.
The inventors next sought to determine whether AM-001 could provide improvement in cardiac function and remodelling during chronic p-AR activation.

[1] = 30 μM Sp-8-CPT, 20 μM inhibitor
[2] = Sp-8-CPT at its EC50 for the isoform
[3] = saturating concentration of Sp-8-CPT
[4] = ISO 60 mg/kg per day 14 days, AM-001 10 mg/kg from day 3

Nc1c(C(=O)Nc2ccc(F)cc2)sc2nc(-c3cccs3)cc(-c3ccccc3)c12 [AM-001, 3-amino-N-(4-fluorophenyl)-4-phenyl-6-(thiophen-2-yl)thieno[2,3-b]pyridine-2-carboxamide]
effect on Epac1 GEF (exchange) activity (Epac1; [1]): prevented Epac1 GEF activity
IC50 (Epac1; [2]): 47.8 ± 1.1 µM
IC50 (Epac1; [3]): 48.5 ± 1 µM
effect on Epac2 GEF activity (Epac2; [1]): no inhibitory effect
IC50 (Epac2; [2]): > 1000 µM
IC50 (Epac2; [3]): > 1000 µM
effect on type I PKA holoenzyme activation (type I PKA holoenzyme): did not influence
liver and renal histology (H & E staining) (wild-type C57BL/6 mice; 10 mg/kg i.p. day 3 to day 14): did not display any apparent histological alterations
plasma level of alanine aminotransferase (ALT) (wild-type C57BL/6 mice; 10 mg/kg i.p. day 3 to day 14): equivalent in each group
plasma level of aspartate aminotransferase (AST) (wild-type C57BL/6 mice; 10 mg/kg i.p. day 3 to day 14): equivalent in each group
LVW/TL ratio under ISO (wild-type C57BL/6 mice; [4]): further decreased
fibrosis (Sirius Red positive area, percent of total area) (wild-type C57BL/6 mice; [4]): 1.1±0.5%
left ventricular end-diastolic internal diameter (LVIDd) (wild-type C57BL/6 mice; during ISO treatment): decrease
left ventricular end-systolic internal diameter (LVIDs) (wild-type C57BL/6 mice; during ISO treatment): decrease
ISO-induced upregulation of GRK5 expression (wild-type C57BL/6 mice; immunoblot, ISO treated animals): significantly reduced
fractional shortening (FS) after 14 days of ISO (wild-type C57BL/6 mice; vs vehicle treated mice): higher FS
